How the values were obtained:
[1] = system: bovine aortic endothelial cells; assay: Effect of peptides on adherent bovine aortic endothelial cells on fibronectin or collagen; format: cell-based; conditions: 0.1M biotinylated peptide, 1 hour; cells adhered four hours on fibronectin or collagen
Procedure: Peptides from the phage display project were added to bovine aortic endothelial cells in culture. The endothelial cells had adhered to a surface coated with collagen or with fibronectin.
Experiment 1: Bovine aortic endothelial cells were plated on glass slides that were coated either fibronectin or collagen. The cell density was 5,000 cells/well. After the cells adhered for four hours, 0.1M of biotinylated peptide was added to each well. The following peptides were used: L1, L2, L5, L6, L7, L12, L13, L14, L19, R1, R3, and R8.
To perform this experiment, the media was removed and the cells were rinsed with 1×PBS plus 1% BSA three times. Peptides were diluted in 1×PBS plus 1% BSA, added to cells and incubated for 1 hour. The cells were rinsed three times with 1% BSA in PBS, and fixed with 2% parafomaldehyde. Aldehyde groups were blocked with 0.2 M HCl-glycine in PBS, the cells were rinsed three times with 1% BSA in PBS and ExtrAvidin-FITC (1:200 dilution) was added and incubated overnight at 4° C. The cells were rinsed three times with 1% BSA in PBS. The chambers and the gasket were removed from each slide, Vectashield was added, covered and viewed on a Nikon microscope. Images were acquired using a Coolsnap digital camera and Metavue software. […]
Experiment 3: The cells were adherent for about 6 hours and peptides at various concentrations were added to the cells. The concentrations of each of the peptides used in this experiment were: 0.1M, 0.01M, 0.001M and 0.0001M biotinylated peptide. The following peptides were tested: L1, L5, L6, L7, L13, L14, R1, R3, R8, DIP1 and PBS control (SEQ ID NOs:1, 3, 4, 5, 8, 9, 11, 13, 14, and 29).

[2] = system: bone and bone marrow; assay: In vivo biopanning with 12-mer peptide phage display library; set-up: species or system BALB/c mice; conditions: for PERCENT FREQUENCY: phage eluted from bone and bone marrow; for PHAGE SEQUENCE FREQUENCY (number of times the sequence was found in a group of plaques): phage eluted from bone and bone marrow after repeated rounds
Excerpt: The Ph.D.-12 Phage Display Peptide Library Kit (New England Biolabs, Beverly, Mass.) used in this study is based on a combinatorial library of random peptide 12-mers fused to a minor coat protein (pIII). […] The peptide is followed by a short spacer of four amino acid residues, the first three residues of which are glycine and the fourth of which is serine, and then the wild-type III sequence. The library consists of approximately 2.7×10^9 electroporated sequences, amplified once to yield approximately 55 copies of each sequence.
For in vivo biopanning, BALB/c mice 8 weeks of age were injected 3.4×10^10 pfu of phage into the heart. The animals were euthanized after 5 minutes, and the tissues (bone, bone marrow, kidney, liver, and spleen) were collected for analysis. The bound phage was eluted according the manufacturer's instructions. The eluted phage was titered, amplified, purified, and injected again at the same concentration.
The frequency of each peptide in bone and bone marrow was compared with its location in other tissues such as liver, kidney, lung, spleen, and brain. Thirteen unique peptide sequences eluted from bone and marrow were identified were identified by sequencing phage DNA. The peptides were synthesized using the polystyrene solid support on a Protein Technologies Symphony Multiple Channel Synthesizer.

[3] = system: Unicortical femoral defects; assay: Peptide-mediated osteogenesis in cortical bone defects (Example 8); format: in vivo, Fisher 344 rats; conditions: 100 mM peptide in gelfoam, two weeks postoperatively; for Effectiveness at stimulating osteogenesis and cortical bone repair: versus gelfoam+PBS
Procedure: In an in vivo study, all 13 peptides at a concentration of 100 mM were tested for their ability to potentiate osteogenesis. A gelfoam cylinder 1.5 mm in diameter 2 mm in length was used as carrier for the peptides. Unicortical femoral defects 1.5 mm in diameter were created bilaterally in Fisher 344 rats; the left femoral defect was filled with gelfoam+PBS (Control), and the right femur with gelfoam+peptide. The samples were harvested and examined two weeks postoperatively. To examine the effect of peptide concentration on cortical bone regeneration, peptide L7 (SEQ ID NO:5) was used at 1, 5, and 20 mM. […] The time course of cortical bone repair with 20 mM L7 was examined at 5, 10, 15, and 20 days.

[4] = system: bone and marrow tissue sections (mouse femur, rib); assay: Biotinylated peptide binding to bone/marrow tissue sections, Avidin-FITC fluorescence
Procedure: Methods: Four-week old Swiss Webster mice were euthanized; the femurs were excised and decalcified in 0.25M EDTA in PBS solution for 5 days, and washed in PBS for 24 hours. The femoral shafts were obtained by cutting off the proximal and distal ends of the femur. The femoral shafts were placed in Tissue-Tek O.C.T. Compound (Sukura Finetek, Torrance, Calif.) and frozen at −20° C. overnight. Sections were cut at 10 μm serially with a cryomicrotome, rinsed with 1% BSA in PBS three times. To block non-specific reaction sections were incubated with Avidin/Biotin Blocking Kit (Vector Laboratories, Inc. Burlingame, Calif.) according to the manufacturer's instructions. Following another rinse with PBS, 150 μl 10 mM solution of each biotinylated peptide (L1, L2, L7, R1, R8) was added to the slides and incubated for 1 hour at room temperature. In negative controls, only PBS was added. After rewashes with 1% BSA, 150 μl of 1:50,000 dilution of Avidin-FITC was added to each slide and incubated overnight at 4° C.
The sections were washed with 1% BSA in PBS and mounted with Vectashield (Vector Laboratories Inc., Burlingame, Calif.). Fluorescence was visualized using a Nikon eclipse E600 microscope (Nikon, Melville, N.Y.) equipped with a 535 nm wavelength fluorescein filter. Images were obtained using a Sony DKC-5000 digital camera (Sony Electronics Inc.) and processed with Adobe Photoshop software (Adobe Systems Incorporated, San Jose, Calif.).
For localization of peptide binding to cells and tissue sections, biotinylated peptides were synthesized. Fluorescein-isothiocyanate (FITC) labeled Avidin was used to localize the peptides on cells in culture and in tissue sections in vitro by epiluminescence microscopy. In addition, the biotinylated peptides were detected at concentrations as low as 1 μM in slot blots.
Cryosections of decalcified femurs harvested from 4 week BALB/c mice were incubated with biotinylated peptide and Avidin-FITC. […] The distribution of fluorescence throughout the marrow was uneven. […] In control slides incubated with PBS without peptide, none of the cells could be detected by fluorescence (not shown). […]

[5] = BALB/c mouse decalcified femur cryosections, biotinylated peptide and Avidin-FITC
[6] = BALB/c mouse femur cryosections, biotinylated peptide
[7] = Swiss Webster mouse decalcified femur cryosections, 10 mM biotinylated peptide, 1 hour, Avidin-FITC
[8] = Swiss Webster mouse femur cryosections, 10 mM biotinylated peptide

Substance	Effect on adherent BAEC (Experiment 1) [1]	PERCENT FREQUENCY [2] [%]	PHAGE SEQUENCE FREQUENCY (number of times the sequence was found in a group of plaques) [2]	Histological appearance of repair tissue in the defect [3]	Effectiveness at stimulating osteogenesis and cortical bone repair [3]	Fluorescence detected in femur sections incubated with peptide [4, 5]	Cell shape preferentially recognized by peptide [4, 6]	Extent of marrow cells detected by fluorescence [4, 6]	Fluorescence detected in femur sections incubated with peptide [4, 7]	Cell shape preferentially recognized by peptide [4, 8]	Extent of marrow cells detected by fluorescence [4, 8]
SER-SER-THR-LEU-LYS-THR-PHE-PHE-GLY-PHE-PRO-ASP-GLY-GLY-GLY-SER (SSTLKTFFGFPDGGGS; listed as Homo sapiens) [Peptide L14]	no effect, with results similar to PBS	40.0	12/30	a considerable amount of gelfoam remaining in the defects, with thinner and more loosely organized cortical bone	least effective for cortical bone repair	–	–	–	–	–	–
LYS-GLU-ILE-PRO-PRO-ILE-PRO-LEU-LEU-ALA-PRO-SER-GLY-GLY-GLY-SER (KEIPPIPLLAPSGGGS; listed as Homo sapiens) [Peptide L5]	the cells had lifted completely and most of the cells disappeared from the surface of the slides, leaving a lot of cell debris	17.9	5/28	while some ossification and cortical bone regeneration has occurred, considerable amounts of gelfoam remains in the defect	virtually no stimulatory effect on osteogenesis	–	–	–	–	–	–
GLY-ILE-HIS-VAL-PRO-TRP-MET-PRO-PRO-VAL-ALA-PHE-GLY-GLY-GLY-SER (GIHVPWMPPVAFGGGS; listed as Homo sapiens) [Peptide L11]	–	3.3	1/30	–	–	–	–	–	–	–	–
LEU-LEU-ALA-ASP-THR-THR-HIS-HIS-ARG-PRO-TRP-THR-GLY-GLY-GLY-SER (LLADTTHHRPWTGGGS; listed as Homo sapiens) [Peptide L2]	no effect, with results similar to PBS	32.1	9/28	a considerable amount of gelfoam remaining in the defects, with thinner and more loosely organized cortical bone	least effective for cortical bone repair	Fluorescence was detected	recognized cells with mostly irregular shapes	did not detect as many cells	Fluorescence was detected	recognized cells with mostly irregular shapes	did not detect as many cells
ASN-ASN-VAL-SER-GLN-LYS-TRP-GLN-GLN-ARG-LEU-ILE-GLY-GLY-GLY-SER (NNVSQKWQQRLIGGGS; listed as Homo sapiens) [Peptide L6]	the cells had lifted completely and most of the cells disappeared from the surface of the slides, leaving a lot of cell debris	17.9	5/28	–	most effective at stimulating osteogenesis and cortical bone repair	–	–	–	–	–	–
THR-MET-ARG-ASN-PRO-ILE-THR-SER-LEU-ILE-SER-VAL-GLY-GLY-GLY-SER (TMRNPITSLISVGGGS; listed as Homo sapiens) [Peptide L1]	the cells lifted and formed clusters that stained intensely	28.6	8/28	a considerable amount of gelfoam remaining in the defects, with thinner and more loosely organized cortical bone	least effective for cortical bone repair	Fluorescence was detected	recognized the round cells preferentially	did not detect as many cells	Fluorescence was detected	recognized the round cells preferentially	did not detect as many cells
LEU-PRO-TRP-THR-GLU-PRO-SER-PHE-TRP-ARG-THR-PRO-GLY-GLY-GLY-SER (LPWTEPSFWRTPGGGS; homo sapiens) [Peptide D1P1]	no effect, with results similar to PBS	–	–	–	–	–	–	–	–	–	–

Reference: patent US7871978B2, “Bone tropic peptides” (University of Virginia Patent Foundation, priority 2004, dated 2011)
